Measured values as given in patent US8536202B2, “Triazole-substituted anthranilamides as pesticides” (Bayer Cropscience AG, priority 2010, dated 2013).
Like-named read-outs stand apart in the source and are kept apart here.

Legend:
[1] = tested on: larvae of the mustard beetle (Phaedon cochleariae); assay: Phaedon test (PHAECO spray treatment); assay type: in vivo; conditions: 168 h, read-out: activity in %
Procedure, shortened: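 Mortality of mustard beetle larvae, expressed as percent killed (100% all, 0% none), assessed 7 days after spraying. Spray liquor made from compound in acetone plus dimethylformamide with alkylaryl polyglycol ether, diluted in emulsifier-containing water to the desired concentration.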

[2] = tested on: caterpillars of the armyworm (Spodoptera frugiperda); assay: Spodoptera frugiperda test (SPODFR spray treatment); assay type: in vivo; conditions: 168 h; for pest or weed control at 100 g/ha: read-out: activity in %
Procedure, shortened: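 Percent caterpillar mortality read 7 days after infestation (0% none killed, 100% all killed). Treatment was a spray of the acetone/DMF/emulsifier formulation, water-diluted to test concentration, onto Zea mays leaf discs, allowed to dry before larvae were added.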

[3] = log P determination by HPLC on reversed-phase columns (EEC Directive 79/831 Annex V.A8); assay type: physicochemical; conditions: pH 2.7
Procedure, shortened: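 Calibration used unbranched alkan-2-ones of 3 to 16 carbons with known log P, values interpolated linearly from retention times between neighbouring standards. Acidic-range LC-MS run at pH 2.7, eluents aqueous and acetonitrile formic acid 0.1%, linear gradient 10% to 95% acetonitrile.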

[4] = reversed-phase C18 HPLC column, HPLC on reversed-phase columns (C 18), EEC Directive 79/831 Annex V.A8, read-out: logP
[5] = HPLC on reversed-phase columns (C 18), EEC Directive 79/831 Annex V.A8, read-out: logP

chromatographic logP [3, 4]	SMILES	pest or weed control at 100 g/ha ([1]; 100 g/ha, after 7 days)	pest or weed control at 100 g/ha ([2]; 100 g/ha, after 7 days)	chromatographic logP [3]	pest or weed control at 100 g/ha [1]	pest or weed control at 100 g/ha [2]	chromatographic logP [3, 5]	pest or weed control at 20 g/ha ([2]; 20 g/ha, after 7 days)
	O=C(NC1CC1)c1cc(Cl)cc(Cl)c1NC(=O)c1cc(Cn2ncc(C(F)(F)F)n2)nn1-c1ncccc1Cl [Example 148]	100%	100%	3.18				
	Cc1cc(Cl)cc(C(=O)NC(C)C)c1NC(=O)c1cc(Cn2cc(C(F)(C(F)(F)F)C(F)(F)F)nn2)nn1-c1ncccc1Cl [Example 227]	100%	100%	3.85				
3.63	Cc1cc(C#N)cc(C(=O)NC2CC2)c1NC(=O)c1cc(Cn2ncc(C(F)(C(F)(F)F)C(F)(F)F)n2)nn1-c1ncccc1Cl [Example 256]	100%	100%					
	Cc1cc(Cl)cc(C(=O)NC(C)C)c1NC(=O)c1cc(Cn2nc(C(F)(F)F)c(C(F)(F)F)n2)nn1-c1ncccc1Cl [Example 409]	100%	100%	4.23				
	CCNC(=O)c1cc(I)cc(C)c1NC(=O)c1cc(Cn2nc(C(F)(F)F)c(C(F)(F)F)n2)nn1-c1ncccc1Cl [Example 389]	100%	100%	4.23				
	Cc1cc(I)cc(C(=O)NC(C)C2CC2)c1NC(=O)c1cc(Cn2cc(C(F)(F)C(F)(F)C(F)(F)F)nn2)nn1-c1ncccc1Cl (stereo not drawn) [Example 336]				100%	100%	4.36	
	Cc1cc(F)cc(C(=O)NC(C)C2CC2)c1NC(=O)c1cc(Cn2ncc(C(F)(F)F)n2)nn1-c1ncccc1Cl (stereo not drawn) [Example 168]	100%	100%	3.36				
4.2	Cc1cc(C#N)cc(C(=O)NC(C)C2CC2)c1NC(=O)c1cc(Cn2ncc(C(F)(C(F)(F)F)C(F)(F)F)n2)nn1-c1ncccc1Cl (stereo not drawn) [Example 250]	100%	100%					
	CCNC(=O)c1cc(I)cc(C)c1NC(=O)c1cc(Cn2cc(C(F)(F)F)nn2)nn1-c1ncccc1Cl [Example 209]	100%	100%	3.04				
3.39	Cc1cc(C#N)cc(C(=O)NC(C)C)c1NC(=O)c1cc(Cn2cc(-c3ccc(C(F)(F)F)cc3)nn2)nn1-c1ncccc1Cl [Example 4]	100%	100%					
	CNC(=O)c1cc(C#N)cc(C)c1NC(=O)c1cc(Cn2nc3ccc(Br)cc3n2)nn1-c1ncccc1Cl [Example 95]	100%	100%	3.01				
	Cc1cc(Cl)cc(C(=O)NC(C)C)c1NC(=O)c1cc(Cn2ncc(C(F)(F)C(F)(F)C(F)(F)F)n2)nn1-c1ncccc1Cl [Example 378]				100%	100%	4.27	
	Cc1cc(Cl)cc(C(=O)NC(C)C)c1NC(=O)c1cc(Cn2nccn2)nn1-c1ncccc1Cl [Example 119]	100%	100%	2.5				
	CNC(=O)c1cc(C#N)cc(C)c1NC(=O)c1cc(Cn2nc3cc(Cl)c(Cl)cc3n2)nn1-c1ncccc1Cl [Example 81]	100%	100%	3.35				
3.17	Cc1cc(C#N)cc(C(=O)NC(C)C)c1NC(=O)c1cc(Cn2cc(C(F)(F)F)nn2)nn1-c1ccccc1Cl [Example 290]	100%	100%					
	Cc1cc(C#N)cc(C(=O)NC(C)(C)C)c1NC(=O)c1cc(Cn2ncc(-c3ccccc3Cl)n2)nn1-c1ncccc1Cl [Example 64]	100%	100%	4.03				
	Cc1cc(I)cc(C(=O)NC2CC2)c1NC(=O)c1cc(Cn2ncc(C(F)(F)F)n2)nn1-c1ncccc1Cl [Example 159]	100%	100%	3.45				
	Cc1cc(I)cc(C(=O)NC2CC2)c1NC(=O)c1cc(Cn2cc(C(F)(F)C(F)(F)C(F)(F)F)nn2)nn1-c1ncccc1Cl [Example 323]				100%	100%	3.82	
	CNC(=O)c1cc(Cl)cc(C)c1NC(=O)c1cc(Cn2nnc3c(Cl)c(Cl)c(Cl)cc32)nn1-c1ncccc1Cl [Example 88]	100%	100%	3.75				
	Cc1cc(I)cc(C(=O)NC2CC2)c1NC(=O)c1cc(Cn2cc(C(F)(C(F)(F)F)C(F)(F)F)nn2)nn1-c1ncccc1Cl [Example 240]	100%	100%	3.83				
	Cc1cc(C#N)cc(C(=O)NC(C)C)c1NC(=O)c1cc(Cn2nncc2C(F)(F)F)nn1-c1ncccc1Cl [Example 216]	100%	100%	2.63				
4.49	CC(NC(=O)c1cc(Cl)cc(Cl)c1NC(=O)c1cc(Cn2ncc(C(F)(C(F)(F)F)C(F)(F)F)n2)nn1-c1ncccc1Cl)C1CC1 (stereo not drawn) [Example 274]	100%						100%
	Cc1cc(Br)cc(C(=O)NC(C)(C)C)c1NC(=O)c1cc(Cn2ncc(C(F)(F)F)n2)nn1-c1ncccc1Cl [Example 176]	100%	100%	4.65				
4.61	Cc1cc(Cl)cc(C(=O)NC(C)C2CC2)c1NC(=O)c1cc(Cn2ncc(C(F)(C(F)(F)F)C(F)(F)F)n2)nn1-c1ncccc1Cl (stereo not drawn) [Example 258]	100%	100%					
	CSC[C@H](C)NC(=O)c1cc(Cl)cc(Cl)c1NC(=O)c1cc(Cn2cc(C(F)(F)F)nn2)nn1-c1ncccc1Cl [Example 202]	100%	100%	3.28				
	CNC(=O)c1cc(I)cc(C)c1NC(=O)c1cc(Cn2nc(C(F)(F)F)c(C(F)(F)F)n2)nn1-c1ncccc1Cl [Example 405]	100%	100%	4.03				
	Cc1cc(I)cc(C(=O)NC(C)C)c1NC(=O)c1cc(Cn2nc(C(F)(F)F)c(C(F)(F)F)n2)nn1-c1ncccc1Cl [Example 403]	100%	100%	4.47				
	CCNC(=O)c1cc(I)cc(C)c1NC(=O)c1cc(Cn2ncc(C(F)(F)C(F)(F)F)n2)nn1-c1ncccc1Cl [Example 355]	100%	100%	3.89				
	Cc1cc(I)cc(C(=O)NC(C)C)c1NC(=O)c1cc(Cn2ncc(C(F)(F)C(F)(F)F)n2)nn1-c1ncccc1Cl [Example 346]	100%	100%	4.15				
4.38	CSC[C@H](C)NC(=O)c1cc(Cl)cc(Cl)c1NC(=O)c1cc(Cn2ncc(C(F)(C(F)(F)F)C(F)(F)F)n2)nn1-c1ncccc1Cl [Example 278]	100%	100%					
